Laboratory results taken from patent publication US20100093678A1, “Compositions and methods of the treatment of obesity and osteoporosis” (THE UNIVERSITY OF GEORGIA RESEARCH FOUNDATION, INC, priority 2008, published 2010).
“And” between values parts separate entries of the source, which are not always exact repeats. Equal entries are not always repeated.

Tests used:
[1] = tested on: maturing 3T3-L1 preadipocytes; assay: Quantification of lipid content (AdipoRed/Nile Red) in maturing preadipocytes; type: cell-based, mouse; details: 0.5 nM 1,25(OH)2D3 (D0.5), 3.12 μM GS (GS3.12), alone or combined; treated during adipogenic phase, measured day 6
Protocol: (§1) 3T3-L1 mouse embryo fibroblasts were obtained from American Type Culture Collection (Manassas, Va.) and were cultured as described elsewhere. Briefly, cells were cultured in DMEM containing 10% bovine calf serum until confluent. Two days after confluence, the cells were stimulated to differentiate with DMEM containing 10% fetal bovine serum (FBS), 167 nM insulin, […], and 1 μM dexamethasone for 2 days. On day 2, differentiation medium was replaced with 10% FBS/DMEM containing 167 nM insulin and incubated for 2 days, followed by culturing with 10% FBS/DMEM for an additional 4 days, at which time >90% of cells were mature adipocytes with accumulated fat droplets. All media contained 1% penicillin streptomycin (10,000 U/ml) and 1% (v/v) 100 mM pyruvate. Cells were maintained at 37° C. in a humidified 5% CO2 atmosphere.
Lipid content was quantified using commercially available AdipoRed™ Assay Reagent. In brief, maturing adipocytes grown in 96-well plates were incubated with vehicle or test compounds during the adipogenic phase and on day 6, culture supernatant was removed and lipid content was quantified by performing AdipoRed™ assay as per the manufacturer's instructions. Treated cells were also stained with Oil Red O and hematoxylin as described by Suryawan and Hu to visualize the lipid content. […]

[2] = tested on: maturing 3T3-L1 preadipocytes; assay: Apoptosis assay (ApoStrand ssDNA ELISA) in maturing preadipocytes; type: cell-based, mouse; details: 0.5 nM 1,25(OH)2D3, 3.12 μM GS, alone or combined
Protocol: as §1
Apoptosis assay. For measuring the extent of apoptosis, the ApoStrand ELISA Apoptosis Detection Kit (Biomol, Plymouth Meeting, Pa.) was used. Cells were grown in 96-well plates and incubated with either vehicle or test reagents for the indicated time periods. Cells were then fixed and assayed as per the manufacturer's instructions. The assay selectively detects single-stranded DNA, which occurs in apoptotic cells but not in necrotic cells or cells with DNA breaks in the absence of apoptosis.

[3] = tested on: PPARγ; assay: Western blot, PPARγ expression in maturing 3T3-L1 preadipocytes; type: cell-based, mouse; details: 0.5 nM 1,25(OH)2D3, 3.12 μM GS, alone or combined; days 0-6; vs control
Protocol: (§2) The protein concentration was determined by BCA assay with bovine serum albumin as the standard. Western blot analysis was performed using the commercial NUPAGE system (Novex/Invitrogen), in which a lithium dodecyl sulfate sample buffer (Tris/glycerol buffer, pH 8.5) was mixed with fresh dithiothreitol and added to samples.
(§3) Measurement of signal intensity on PVDF membranes after Western blotting with various antibodies was performed using a Fluor Chem densitomer with the Alpha-EaseFC image processing and analysis software (Alpha Innotech Corp.). For statistical analysis, all data were expressed as integrated density values (IDV), which were calculated as the density values of the specific protein bands/b-actin density values and expressed as percentage of the control. All figures showing quantitative analysis include data from at least three independent experiments.

[4] = tested on: C/EBPα; assay: Western blot, C/EBPα expression in maturing 3T3-L1 preadipocytes; type: cell-based, mouse; details: 0.5 nM 1,25(OH)2D3, 3.12 μM GS, alone or combined; days 0-6; vs control
Protocol: as §2, §3

[5] = tested on: aP2; assay: Western blot, aP2 expression in maturing 3T3-L1 preadipocytes; type: cell-based, mouse; details: 0.5 nM 1,25(OH)2D3, 3.12 μM GS, alone or combined; days 0-6; vs control
Protocol: as §2, §3

[6] = tested on: FXR; assay: Western blot, FXR expression in maturing 3T3-L1 preadipocytes; type: cell-based, mouse; details: for increase in FXR levels: 3.12 μM GS
Protocol: as §2, §3

[7] = tested on: human mesenchymal stem cells (hMSC); assay: Osteogenic differentiation of hMSC (ALP activity, calcium deposition, Alizarin red S); type: cell-based; details: for alp activity: FIG. 8D, osteogenic conditions; for osteogenesis: hMSC cultured under osteogenic conditions; for increased calcium deposition: pretreatment, day 17, XN 5 μM, cGS varying doses
Protocol: Alkaline phosphatase activity (ALP/protein) was measured on day 8. Means that are not denoted with a common letter are different (p<0.001).
(§4) In these further examples, post confluent hMSC were treated with varying doses of cGS or XN in adipogenic induction medium, and lipid deposition and cell viability were measured. Alternatively, pre-confluent hMSC were pre-treated with varying doses of cGS or XN for 3 days prior to addition of osteogenic induction medium. Alkaline phosphatase (ALP) activity was determined 3 days post-induction and indices of mineralization (calcium deposition and Alizarin red S stain) were determined 14-28 days post-induction. […] Inhibition was dose-dependent with ˜50% inhibition observed with 6.5 μM cGS and 0.75 μM XN, respectively. Pretreatment with cGS stimulated osteogenic differentiation in hMSC cultures as indicated by increased ALP activity at day 3 (˜10%; P<0.05) and calcium deposition at day 17 (˜35-60%; P<0.05). Pretreatment with 5 μM XN increased calcium deposition (33%; P<0.05) at day 17.

[8] = tested on: maturing 3T3-L1 preadipocytes; assay: Cell viability assay (CellTiter 96) in maturing preadipocytes; type: cell-based, mouse; details: 0.5 nM 1,25(OH)2D3, 3.12 μM GS, alone or combined; 6 days during adipogenesis
Protocol: as §1
Tests were performed in 96-well plates. Two day postconfluent preadipocytes were treated with differentiation medium containing either vehicle or test compounds for 6 days during adipogenesis. On day 6 the treatment medium was removed and the cell viability assay was performed as per the manufacturer's instructions. The absorbance was measured at 490 nm in a plate reader (μQuant Bio-Tek Instruments, Winooski, Vt.) to determine the formazan concentration, which is proportional to the number of live cells.

[9] = tested on: VDR; assay: Western blot, VDR expression in maturing 3T3-L1 preadipocytes; type: cell-based, mouse; details: any time point (day 1, 4, 6); 3.12 μM GS
Protocol: as §2, §3

[10] = tested on: human mesenchymal stem cells (hMSC); assay: Lipid deposition / adipogenesis in hMSC under adipogenic conditions; type: cell-based; details: for adipogenesis (lipid accumulation): hMSC cultured under adipogenic conditions
Protocol: Cells were cultured in adipogenic induction medium and treated with control or the combination of R+Q+G (15 μM each). After 18 days adipogenesis was measured and expressed as % control. […] Means that are not denoted with a common letter are different p<0.05.
as §4

[11] = tested on: human mesenchymal stem cells (hMSC); assay: Cell viability in hMSC adipogenic cultures; type: cell-based; details: adipogenic conditions; varying doses of cGS; XN 1.5-12 μM
Protocol: (§5) In these further examples, post confluent hMSC were treated with varying doses of cGS or XN in adipogenic induction medium, and lipid deposition and cell viability were measured. Alternatively, pre-confluent hMSC were pre-treated with varying doses of cGS or XN for 3 days prior to addition of osteogenic induction medium. Alkaline phosphatase (ALP) activity was determined 3 days post-induction and indices of mineralization (calcium deposition and Alizarin red S stain) were determined 14-28 days post-induction. […] P<0.05). Pretreatment with 5 μM XN increased calcium deposition (33%; P<0.05) at day 17.

[12] = tested on: human mesenchymal stem cells (hMSC); assay: Cell viability in hMSC osteogenic cultures; type: cell-based; details: osteogenic conditions; varying doses of cGS; XN 20 μM
Protocol: as §5

[13] = tested on: PPARs; details: reference [20]; cited from earlier work

## C=C1/C(=C\C=C2/CCC[C@]3(C)[C@@H]([C@H](C)CCCC(C)(C)O)CC[C@@H]23)C[C@@H](O)C[C@@H]1O [1,25(OH)2D3, 1,25-dihydroxy vitamin D3, reference compound]
[1]
  decrease in lipid accumulation: 29.3±3.4%
[2]
  increase in apoptosis: 18.4±2.3%
[3]
  decrease in expression of PPARγ: 46.2±4.4% and 46%
[4]
  decrease in expression of C/EBPα: 46.3±3.4% and 46%
[5]
  decrease in expression of aP2: 27.2±4.8%
[6]; any time point, 0.5 nM 1,25(OH)2D3
  effect on FXR levels: no effect
[7]
  alp activity: significantly increased alp activity

## C/C=C1\C(=O)C[C@H]2[C@@H]3CCC4=CC(=O)CC[C@]4(C)[C@H]3CC[C@]12C [GS, cis-Guggulsterone]
[1]
  decrease in lipid accumulation: 29.7±2.7%
[8]
  decrease in cell viability: did not have any significant effect
[2]
  increase in apoptosis: did not have any significant effect
[3]
  decrease in expression of PPARγ: did not significantly alter
[4]
  decrease in expression of C/EBPα: did not significantly alter
[5]
  decrease in expression of aP2: did not significantly alter
[9]
  effect on VDR expression: did not significantly alter
[6]; day 1, 3.12 μM GS alone or with 0.5 nM 1,25(OH)2D3
  effect on FXR expression: did not have any significant effect
[6]; day 4
  increase in FXR levels: 30.6±9.3%
[6]; day 6
  increase in FXR levels: 64.8±10%
[10]; 6.5 μM cGS, 0.75 μM XN, adipogenic conditions
  inhibition of lipid deposition: ~50%
[10]
  adipogenesis (lipid accumulation): reduced adipogenesis
[11]
  cell number (viability): dose-dependent increase
[12]
  cell number (viability): dose-dependent increase
[7]
  osteogenesis: promoted osteogenesis
  increased calcium deposition: 35-60%
[7]; pretreatment 3 days before osteogenic induction, day 3 post-induction
  increased ALP activity: ~10%
[13]
  interaction with PPARs: did not interact

## COc1cc(O)c(CC=C(C)C)c(O)c1C(=O)/C=C/c1ccc(O)cc1 [XN, xanthohumol]
[10]; Homo sapiens, Mesenchymal stem cells, 6.5 μM cGS, 0.75 μM XN, adipogenic conditions
  inhibition at 0.75 µM: ~50%
[10]
  adipogenesis (lipid accumulation): reduced adipogenesis
[11]
  cell number (viability): increased cell viability dose-dependently
[12]
  cell number (viability): decreased viability
[7]
  osteogenesis: promoted osteogenesis
  increased calcium deposition: 33%

## O=c1c(-c2ccc(O)cc2)coc2cc(O)cc(O)c12 [genistein, 5,7-Dihydroxy-3-(4-hydroxyphenyl)chromen-4-one]
[7]
  alp activity: significantly increased alp activity
  osteogenesis: promoted osteogenesis

## O=c1c(O)c(-c2ccc(O)c(O)c2)oc2cc(O)cc(O)c12 [quercetin, 2-(3,4-dihydroxyphenyl)-3,5,7-trihydroxy-4H-chromen-4-one]
[10]
  adipogenesis (lipid accumulation): reduced adipogenesis
[7]
  osteogenesis: promoted osteogenesis

## vitamin D [reference compound]
[7]
  osteogenesis: promoted osteogenesis
